In patent US20250205195A1, “BENZYLOXY-BENZYLAMINYL AMINO ACID DERIVATIVE FOR ADJUSTING TSLP/TSLPR SIGNAL TRANSMISSION” (AMTIXBIO CO., LTD., priority 2021, published 2025):

Key:
interleukin-6 (IL-6) = test: TNF-α/IFN-induced interleukin-6 in HaCaT keratinocytes (ELISA); format: cell-based, human; settings: HaCaT cells, 0, 1, 2, 4 and 8 µg/mL, TNF-α and IFN 50 ng/mL each, 24 h
Experimental: Furthermore, human keratinocyte HaCaT cells (obtained from the Korean Cell Line Bank) were seeded at an initial density of 2×10^5 cells/well in a 12-well plate and cultured at 37° C. for 16 to 24 hours. The compound 27 of the present invention was then added to the HaCaT cell culture medium at final concentrations of 0, 1, 2, 4, and 8 µg/mL and the cells were cultured at 37° C. for 1 hour. Subsequently, to induce interleukin-6, the culture medium was treated with TNF-α (Sigma-Aldrich, USA) and […] (Sigma-Aldrich, USA) to final concentrations of 50 ng/mL each, and the cells were cultured for an additional 24 hours at 37° C. Next, the culture supernatant was collected, and the amount of induced interleukin-6 from HaCaT cells was determined using an ELISA kit (LABIS KOMA, South Korea) according to the manufacturer's instructions.
Human keratinocyte HaCaT cells (obtained from the Korean Cell Line Bank) were seeded in a 12-well plate at an initial density of 2×10^5 cells/well and cultured at 37° C. for 16 to 24 hours. […] The culture supernatant was collected, and the amount of induced interleukin-6 from HaCaT cells was determined using an ELISA kit (LABIS KOMA, South Korea) according to the manufacturer's instructions.

interleukin-4 (IL-4) = test: PMA/ionomycin-induced interleukin-4 in RBL-2H3 cells (ELISA); format: cell-based, rat; settings: RBL-2H3 cells, 0, 1, 2, 4 and 8 µg/mL, 24 h
Experimental: Rat basophilic leukemia cells RBL-2H3 (obtained from the Korean Cell Line Bank) were seeded at an initial density of 2×10^5 cells/well in a 48-well plate and cultured at 37° C. for 16 to 24 hours. Subsequently, compound 27 of the present invention was added to the RBL-2H3 cell culture medium at final concentrations of 0, 1, 2, 4, and 8 µg/mL and the cells were cultured at 37° C. for 1 hour. Next, to induce interleukin-4, the culture medium was treated with PMA ([…], Sigma-Aldrich, USA) and ionomycin (Sigma-Aldrich, USA) to final concentrations of 50 ng/mL and […], respectively, and the cells were cultured for an additional 24 hours at 37° C. The culture supernatant was then collected, and the amount of induced interleukin-4 from RBL-2H3 cells was determined using an ELISA kit (LABIS KOMA, South Korea) according to the manufacturer's instructions. FIG. 2 (a) represents the results.

[1] = system: DNFB-induced atopic dermatitis mice; test: DNFB-induced atopic dermatitis mouse model, itch scratching test; format: in vivo, ICR mice; settings: 1˜10 mg/kg, ip, po or topical, daily for one week, 30 min recording, vs control group
Experimental: ICR mice (Supplier: Koatech, Gyeonggi, South Korea, Male, 9 weeks old) were used. After acclimatization to the environment for one week, the mice were divided into treatment and control groups, and then hair was removed from the area (dorsal area) where the drug was applied on day 0, 0.5% DNFB (50 μL) diluted in 99% acetone, was applied to the dorsal area. Subsequently, on days 5, 8, 10 and 14, additional applications of 0.2% DNFB (20 μL) were applied to induce atopic dermatitis. After 7 days of DNFB treatment, once skin lesions were confirmed in all mice, compound 27 of the present invention was administered daily for one week via intraperitoneal (ip), oral (po), or topical (dermal) routes.
For the groups treated with the compound 27 of the present invention (1˜10 mg/kg) and the control group, mice were separated on days 5, 8, 11 and 15, acclimatized for 1 hour, and their scratching behavior patterns were recorded and analyzed for 30 minutes.

skin-specific T cells = test: FACS analysis of T cell fractions in skin tissue isolated from atopic dermatitis patients; format: cell-based, human; settings: patient skin tissue, 16 g/mL, 8 g/mL
Text: For tissues isolated from the skin of atopic dermatitis patients (Yonsei Severance Hospital, South Korea) followed by the treatment of the compound 27 of the present invention, T cell fractions were compared, and the results are presented in FIG. 16 (Data are shown as mean standard deviation (SD). ** P<0.01, * P<0.05).

Compound: CCC(NC)C(=O)NCc1ccc(OCc2ccc(C(F)(F)F)cc2)cc1 (racemic) [Compound 27, (R)/(S)-2-(methylamino)-N-(4-((4-trifluoromethyl)benzyl)oxy)benzyl)butanamide]
- amount of induced interleukin-6 (interleukin-6 (IL-6)): decreased
- amount of induced interleukin-4 (interleukin-4 (IL-4)): decreased proportionally
- scratching frequency [1]: significantly decreased
- CD69+ T cells and CD103+ T cells (skin-specific T cells): remarkable reduction
- proportion of skin-specific T cells (skin-specific T cells): concentration-dependent significant decrease
